The source of these data is patent publication US9902711B2, “Piperidine compounds having multimodal activity against pain” (LABORATORIOS DEL DR. ESTEVE S.A., priority 2013, dated 2018).

As a reminder, the Ki is a dissociation constant, usually derived from enzyme kinetics or from competition with a known ligand.

The structures appear in SMILES notation. Bounds are passed on as bounds.

The experiment has as its target human σ1 receptor and human μ-opioid receptor. Nature of the experiment: Human σ1 receptor radioligand assay and human μ-opioid receptor radioligand assay (results reported only as combined μ and σ1 dual binding). The arrangement: key to μ and σ1 dual binding: +: Both Ki-μ and Ki-σ1>=500 nM; ++: One Ki<500 nM while the other Ki is >=500 nM; +++: Both Ki-μ and Ki-σ1<500 nM; ++++: Both Ki-μ and Ki-σ1<100 nM. To be noted: Ki at human σ1 receptor (HEK-293 membranes, [3H](+)-pentazocine) and human μ-opioid receptor (CHO-K1 membranes, [3H]-DAMGO), one combined class. On the procedure:
To investigate binding properties of σ1 receptor ligands to human σ1 receptor, transfected HEK-293 membranes and [^3H](+)-pentazocine (Perkin Elmer, NET-1056), as the radioligand, were used. The assay was carried out with 7 μg of membrane suspension, 5 nM of [^3H](+)-pentazocine in either absence or presence of either buffer or 10 μM Haloperidol for total and non-specific binding, respectively. Binding buffer contained Tris-HCl 50 mM at pH 8. Plates were incubated at 37° C. for 120 minutes. After the incubation period, the reaction mix was then transferred to MultiScreen HTS, FC plates (Millipore), filtered and plates were washed 3 times with ice-cold 10 mM Tris-HCL (pH7.4). Filters were dried and counted at approximately 40% efficiency in a MicroBeta scintillation counter (Perkin-Elmer) using EcoScint liquid scintillation cocktail
To investigate binding properties of μ-opioid receptor ligands to human μ-opioid receptor, transfected CHO-K1 cell membranes and [^3H]-DAMGO (Perkin Elmer, ES-542-C), as the radioligand, were used. The assay was carried out with 20 μg of membrane suspension, 1 nM of [^3H]-DAMGO in either absence or presence of either buffer or 10 μM Naloxone for total and non-specific binding, respectively. Binding buffer contained Tris-HCl 50 mM, MgCl2 5 mM at pH 7.4. Plates were incubated at 27° C. for 60 minutes. After the incubation period, the reaction mix was then transferred to MultiScreen HTS, FC plates (Millipore), filtered and plates were washed 3 times with ice-cold 10 mM Tris-HCL (pH 7.4). Filters were dried and counted at approximately 40% efficiency in a MicroBeta scintillation counter (Perkin-Elmer) using EcoScint liquid scintillation cocktail.
As to `CCNC(=O)Oc1cccc(C2CCN(Cc3cn(-c4ccccc4)nn3)CC2)c1` [Example 1, 3-(1-((1-phenyl-1H-1,2,3-triazol-4-yl)methyl)piperidin-4-yl)phenyl ethylcarbamate], the Ki is < 500 nM.
With `COc1cccc(C2CCN(Cc3cn(-c4ccc(F)cc4)nn3)CC2)c1` [Example 2, 1-((1-(4-fluorophenyl)-1H-1,2,3-triazol-4-yl)methyl)-4-(3-methoxyphenyl)piperidine], the “μ and σ1 dual binding” value is “++”.
For the molecule `CC(=O)Oc1cccc(C2CCN(Cc3cn(Cc4ccccn4)nn3)CC2)c1` [Example 3, 3-(1-((1-(pyridin-2-ylmethyl)-1H-1,2,3-triazol-4-yl)methyl)piperidin-4-yl)phenyl acetate], the “μ and σ1 dual binding” value is “++”.
For the molecule `O=C(Nc1ccc(C(=O)O)cc1)Oc1cccc(C2CCN(Cc3cn(Cc4ccccn4)nn3)CC2)c1` [Example 4], the inhibitory constant (Ki) is < 500 nM.
As for `CC(C)C(=O)Oc1cccc(C2CCN(Cc3cn(Cc4ccccn4)nn3)CC2)c1` [Example 5, 3-(1-((1-(pyridin-2-ylmethyl)-1H-1,2,3-triazol-4-yl)methyl)piperidin-4-yl)phenyl isobutyrate], the Ki is < 500 nM.
With `CC(C)[C@H](N)C(=O)Oc1cccc(C2CCN(Cc3cn(Cc4ccccn4)nn3)CC2)c1` [Example 6, (S)-3-(1-((1-(pyridin-2-ylmethyl)-1H-1,2,3-triazol-4-yl)methyl)piperidin-4-yl)phenyl 2-amino-3-methylbutanoate], the Ki was < 500 nM.
In the case of `COc1cccc(C2CCN(Cc3cn(-c4ccccc4)nn3)CC2)c1` [Example 7, 4-(3-methoxyphenyl)-1-((1-phenyl-1H-1,2,3-triazol-4-yl)methyl)piperidine], the Ki is < 500 nM.
On the same count and under the same terms, as for `CN(C)C(=O)Oc1cccc(C2CCN(Cc3cn(-c4ccccc4)nn3)CC2)c1` [Example 8, 3-(1-((1-phenyl-1H-1,2,3-triazol-4-yl)methyl)piperidin-4-yl)phenyl dimethylcarbamate], the figure is < 500 nM; as for `CC(=O)Oc1cccc(C2CCN(Cc3cn(-c4ccccc4)nn3)CC2)c1` [Example 9, 3-(1-((1-phenyl-1H-1,2,3-triazol-4-yl)methyl)piperidin-4-yl)phenyl acetate], < 100 nM.
As to `COCCOc1cccc(C2CCN(Cc3cn(-c4ccccc4)nn3)CC2)c1` [Example 10, 4-(3-(2-methoxyethoxy)phenyl)-1-((1-phenyl-1H-1,2,3-triazol-4-yl)methyl)piperidine], the Ki was < 500 nM.
Take `COCCCOc1cccc(C2CCN(Cc3cn(-c4ccccc4)nn3)CC2)c1` [Example 11, 4-(3-(3-methoxypropoxy)phenyl)-1-((1-phenyl-1H-1,2,3-triazol-4-yl)methyl)piperidine]: the inhibition constant (Ki) is < 500 nM.
With `COc1cccc(C2CCN(Cc3cn(Cc4ccccn4)nn3)CC2)c1` [Example 12, 2-((4-((4-(3-methoxyphenyl)piperidin-1-yl)methyl)-1H-1,2,3-triazol-1-yl)methyl)pyridine], the “μ and σ1 dual binding” value is given as “++”.
Take `CC(C)[C@H](NC(=O)Oc1cccc(C2CCN(Cc3cn(Cc4ccccn4)nn3)CC2)c1)C(=O)O` [Example 13]: the inhibitory constant (Ki) was ≥ 500 nM.
Regarding `O=C(O)CNC(=O)Oc1cccc(C2CCN(Cc3cn(Cc4ccccn4)nn3)CC2)c1` [Example 14], the Ki was ≥ 500 nM.
Consider `COc1cccc(C2CCN(Cc3cn(Cc4ncccc4F)nn3)CC2)c1` [Example 15, 3-fluoro-2-((4-((4-(3-methoxyphenyl)piperidin-1-yl)methyl)-1H-1,2,3-triazol-1-yl)methyl)pyridine], for which the “μ and σ1 dual binding” value is on record as “++”.
Same read-out and setting: as for `COc1cccc(C2CCN(Cc3cn(Cc4ccc(F)cn4)nn3)CC2)c1` [Example 16, 5-fluoro-2-((4-((4-(3-methoxyphenyl)piperidin-1-yl)methyl)-1H-1,2,3-triazol-1-yl)methyl)pyridine], the entry is “++”.
For the molecule `COc1cccc(C2CCN(Cc3cn(C(CO)c4ccccc4)nn3)CC2)c1` (centres unmarked) [Example 17, 2-(4-((4-(3-methoxyphenyl)piperidin-1-yl)methyl)-1H-1,2,3-triazol-1-yl)-2-phenylethanol], the “μ and σ1 dual binding” value is “++”.
As to `O=C(Oc1cccc(C2CCN(Cc3cn(Cc4ccccn4)nn3)CC2)c1)[C@@H]1CCCN1` [Example 18, (S)-3-(1-((1-(pyridin-2-ylmethyl)-1H-1,2,3-triazol-4-yl)methyl)piperidin-4-yl)phenyl pyrrolidine-2-carboxylate], the Ki was < 500 nM.
Consider `N[C@@H](Cc1ccccc1)C(=O)Oc1cccc(C2CCN(Cc3cn(Cc4ccccn4)nn3)CC2)c1` [Example 19, (S)-3-(1-((1-(pyridin-2-ylmethyl)-1H-1,2,3-triazol-4-yl)methyl)piperidin-4-yl)phenyl 2-amino-3-phenylpropanoate], for which the Ki was < 500 nM.
For `NC1(C(=O)Oc2cccc(C3CCN(Cc4cn(Cc5ccccn5)nn4)CC3)c2)CCCCC1` [Example 20, 3-(1-((1-(pyridin-2-ylmethyl)-1H-1,2,3-triazol-4-yl)methyl)piperidin-4-yl)phenyl 1-aminocyclohexanecarboxylate], the Ki was ≥ 500 nM.
